These results are taken from publication PMC8665847 (European Journal of Medicinal Chemistry, 2021).

Where only a bound is given, the exact number is not on record here.

Assay [1] has as its system SARS-CoV 3CL^pro. As to conditions: cited from earlier work.
Assay [2] has as its target 3CL^pro (Severe acute respiratory syndrome coronavirus 2, UniProt P0DTD1). Briefly: LC-MS detection of 3CLpro-inhibitor covalent adducts. It counts as binding, SARS-CoV-2.
Assay [3] concerns the target SARS-CoV-2 3CL^pro (Severe acute respiratory syndrome coronavirus 2, UniProt P0DTD1). Briefly: biochemical. It counts as biochemical. As to conditions: for time dependence of the level of inhibition: incubation time 0-60 min, inhibitor close to its IC50 concentration (Fig. S4).

As for `CC(C)(C)c1ccc(N(C(=O)c2c[nH]cn2)C(C(=O)NC2CCCCC2)c2cccnc2)cc1` (stereo not drawn) [X77, N-(4-(tert-butyl)phenyl)-N-(2-(cyclohexylamino)-2-oxo-1-(pyridin-3-yl)ethyl)-1H-imidazole-5-carboxamide], the IC50 in assay [1] is 3.4 µM.

Turning to `C=CS(=O)(=O)N(c1ccc(C(C)(C)C)cc1)C(C(=O)NC1CCCCC1)c1cccnc1` (stereo not drawn) [14a, 2-(N-(4-(tert-butyl)phenyl)vinylsulfonamido)-N-cyclohexyl-2-(pyridin-3-yl)acetamide], the “presence of 3CLpro-inhibitor adduct by LC-MS” value in assay [2] is on record as “confirmed”. Also, in assay [3], the half-inhibitory concentration (IC50) was 0.5 µM and the “time dependence of the level of inhibition” value is “increased with incubation time”. With `CC(C)(C)NC(=O)C(c1cccnc1)N(C(=O)c1ccco1)c1ccc(C(C)(C)C)cc1` (stereo not drawn) [ML188, N-(4-(tert-butyl)phenyl)-N-(2-(tert-butylamino)-2-oxo-1-(pyridin-3-yl)ethyl)furan-2-carboxamide], in assay [1], the IC50 is […].

Regarding `CC(C)(C)c1ccc(N(C(=O)CCl)C(C(=O)NC2CCCCC2)c2cccnc2)cc1` (stereo not drawn) [16a, N-(4-(tert-butyl)phenyl)-2-chloro-N-(2-(cyclohexylamino)-2-oxo-1-(pyridin-3-yl)ethyl) acetamide], in assay [2], the “presence of 3CLpro-inhibitor adduct by LC-MS” value is “confirmed”. Besides, the “time dependence of the level of inhibition” value in assay [3] is on record as “increased with incubation time”.

For the molecule `CC(C)(C)c1ccc(N(C(=O)C#CCO)C(C(=O)NC2CCCCC2)c2cccnc2)cc1` (stereo not drawn) [23a, N-(4-(tert-butyl)phenyl)-N-(2-(cyclohexylamino)-2-oxo-1-(pyridin-3-yl)ethyl)-4-hydroxybut-2-ynamide], in assay [3] (ratio of IC50), the “improvement in potency over alkynylamide analogue 13a” value is listed as approximately 10 fold. In assay [3], `C=CS(=O)(=O)N(c1ccc(C(C)(C)C)cc1)[C@@H](C(=O)N[C@@H](C)c1ccccc1)c1cccnc1` (mixture of isomers) [14g, (S)- and (R)-2-(N-(4-(tert-butyl)phenyl)vinylsulfonamido)-N-((S)-1-phenylethyl)-2-(pyridin-3-yl)acetamide] yielded an inhibition at 50 µM of more than 95%. The “times more potent than diastereomer 14h” value in assay [3] (ratio of IC50) is recorded as “approximately 20 times”. On to `C=CS(=O)(=O)N(c1ccc(C(C)(C)C)cc1)[C@H](C(=O)N[C@@H](C)c1ccccc1)c1cccnc1` (mixture of isomers) [14h, (S)- and (R)-2-(N-(4-(tert-butyl)phenyl)vinylsulfonamido)-N-((S)-1-phenylethyl)-2-(pyridin-3-yl)acetamide], for which the inhibition at 50 µM in assay [3] is more than 95%.

On to `C=CC(=O)N(c1ccc(C(C)(C)C)cc1)C(C(=O)NC1CCCCC1)c1cccnc1` (stereo not drawn) [6a, N-(4-(tert-butyl)phenyl)-N-(2-(cyclohexylamino)-2-oxo-1-(pyridin-3-yl)ethyl) acrylamide], for which the IC50 in assay [3] turned out to be 11.1 ± 1.5 µM.
